Results from US11648395B2, “Electrode assemblies for neuromodulation” (Cardionomic, Inc., priority 2018, dated 2023).

System: normal, non-HF ovine model
Experiment: Correlation of right and left ventricle contractility (max dP/dt) after injection, heartbeat-by-heartbeat
Assay type: in vivo
Conditions: max(dP/dt) used as surrogate for contractility, after injection (calcium: 5 mL)
Source text: The correlation was a heartbeat-by-heartbeat analysis. Pressure measurements, taken by a Millar catheter comprising a MEMS pressure sensor, in units of max(dP/dt) was used as a surrogate for contractility. The first change, a dobutamine injection, provided a very high contractility increase greater than 500%. The average correlation between right ventricle contractility and left ventricle contractility was very good at 0.91, where 1.00 is a perfect correlation. Accordingly, if a subject is given a dobutamine injection, measuring changes to right ventricle contractility can provide accurate information about changes to left ventricle contractility. The first change was repeated three times. The second change, calcium injection at 5 mL, provided a contractility increase of about 20%. […] The average correlation between right ventricle contractility and left ventricle contractility using a Millar (MEMS) sensor on a catheter was very good at 0.91. The average correlation between right ventricle contractility and left ventricle contractility using a fluid-filled lumen of a Swan-Ganz catheter in communication with an external pressure sensor was also very good at 0.87. Accordingly, under certain circumstances such as measurement of an animal (normal, non-HF ovine model) model, if a subject is given a calcium injection, measuring changes to right ventricle contractility with a MEMS sensor or a fluid filled lumen can provide accurate information about changes to left ventricle contractility.

Compound	Contractility % Increase [%]	Contractility % Increase (listed as calcium injection)	Contractility % Increase (listed as dobutamine injection)
calcium [Calcium Injection]	~20	about 20%	–
CC(CCc1ccc(O)cc1)NCCc1ccc(O)c(O)c1 (stereo not shown) [Dobutamine Injection, dobutamine]	>500	–	greater than 500%
